In patent US6586630B1, “Ethylamine derivatives” (Chugai Seiyaku Kabushiki Kaisha, priority 1998, dated 2003):
pIC50: −log10 of the molar value.

Experiments:
Motilin receptor = molecular target: T1, Motilin receptor (Oryctolagus cuniculus, UniProt G1T803); assay: Motilin receptor binding test (125I motilin, rabbit duodenum protein sample); details: 125I motilin 25 pM, concentration reducing specific binding by 50%
T1 construct: had the mucous membrane separated and homogenized in 50 mM Tris buffer to prepare a protein sample; from tissue; host or cells: rabbit duodenum with the mucous membrane separated, homogenate
T1 sequence (G1T803 1-400): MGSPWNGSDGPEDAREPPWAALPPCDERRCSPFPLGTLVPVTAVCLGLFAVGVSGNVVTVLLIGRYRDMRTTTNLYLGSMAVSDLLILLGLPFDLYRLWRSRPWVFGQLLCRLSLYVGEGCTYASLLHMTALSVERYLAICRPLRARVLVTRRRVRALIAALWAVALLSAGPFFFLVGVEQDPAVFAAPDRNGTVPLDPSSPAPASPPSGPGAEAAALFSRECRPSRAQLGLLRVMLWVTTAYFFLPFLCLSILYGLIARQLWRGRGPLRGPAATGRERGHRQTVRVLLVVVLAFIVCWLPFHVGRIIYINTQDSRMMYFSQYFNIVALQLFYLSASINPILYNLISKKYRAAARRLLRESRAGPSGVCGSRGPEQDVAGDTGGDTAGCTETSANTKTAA
Protocol: Motilin Receptor Binding Test
A motilin receptor binding test was conducted in the following manner [Vantrappen et al., Regul. Peptides, 15, 143 (1986)]. The duodenum was extracted from a slaughtered rabbit, had the mucous membrane separated and homogenized in 50 mM Tris buffer to prepare a protein sample. The protein sample was incubated together with ^125I motilin 25 pM and thereafter the radioactivity bound to the protein was measured. Specific binding was defined as the difference between the radioactivity in the case of no adding and that in the case of adding a great excess amount of motilin (10^−7 M). The activity of the compound was expressed by IC50 (in nM), as the concentration sufficient to reduce the specific binding by 50%.

[1] = tested on: motilin-induced contraction of longitudinal muscle in the duodenum; assay: Contraction suppressing test: motilin-induced contraction of a specimen of longitudinal muscle in the duodenum extracted from a rabbit; type: cell-based; details: rabbit duodenum longitudinal muscle in organ bath, Krebs solution 28° C.; effect on dose-dependent contraction by motilin
Protocol: Action on the Contraction of a Specimen of Longitudinal Muscle in the Duodenum Extracted from a Rabbit
The action on the motilin-induced contraction of a specimen of longitudinal muscle in the duodenum extracted from a rabbit was investigated by the following method. A duodenum specimen extracted from a slaughtered rabbit (5×15 mm) was suspended in an organ bath (10 ml) such that the longitudinal muscle would run vertically; the bath was filled with a Krebs solution kept at 28° C. A mixed gas (95% O2 and 5% CO2) was continuously bubbled into the Krebs solution and the contraction of the duodenum specimen was recorded isotonically (with a 1-g load) via an isotonic transducer (ME-3407, ME Commercial, Tokyo, Japan). The degree of contraction was expressed in relative values, with the contraction by acetylcholine at a dose of 10^−4 M being taken as 100%. The activity of the compound was calculated as pA2 value indicating its effect on the dose-dependent muscle contraction by the motilin put into the organ bath.

For `CC(C)[C@@H](C(=O)NC(Cc1ccc(F)c(C(C)(C)C)c1)C(N)=O)N(C)C(=O)[C@@H](N)Cc1ccccc1` (single isomer, unassigned) [7 (A), Phe-N-Me-Val-Phe(3-tBu-4-F)—NH2], the pIC50 (Motilin receptor) was 8.46 and the “Contraction suppressing test, pA2” value [1] was 7.58.
